Like-named read-outs stand apart in the source and are kept apart here.
Columns and labels:
human PAC1 receptor = molecular target: T1, human PAC1 receptor (Homo sapiens, UniProt P41586); assay: cAMP stimulation in CHO cells expressing PAC1; format: cell-based; conditions: for Emax: CHO
T1 construct: expressed in transfected cells; host or cells: CHO cells (G418 selection)
T1 sequence (P41586 21-468): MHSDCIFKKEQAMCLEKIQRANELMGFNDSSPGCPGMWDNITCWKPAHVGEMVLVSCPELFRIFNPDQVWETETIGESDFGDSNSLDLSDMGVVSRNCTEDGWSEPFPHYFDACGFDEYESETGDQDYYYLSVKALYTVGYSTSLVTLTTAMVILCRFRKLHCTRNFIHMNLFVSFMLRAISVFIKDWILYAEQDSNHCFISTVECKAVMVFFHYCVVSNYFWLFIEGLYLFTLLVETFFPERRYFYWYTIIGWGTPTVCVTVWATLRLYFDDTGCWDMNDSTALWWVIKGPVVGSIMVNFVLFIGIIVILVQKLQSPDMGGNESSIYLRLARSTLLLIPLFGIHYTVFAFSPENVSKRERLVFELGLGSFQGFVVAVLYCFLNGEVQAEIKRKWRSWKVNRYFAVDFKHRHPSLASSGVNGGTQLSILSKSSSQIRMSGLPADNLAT
Protocol: Briefly, human PAC1, VPAC1, and VPAC2 receptors expressed in CHO cells were used for all experiments. Cells were grown in 50:50 DMEM-F12 medium with 10% heat-inactivated fetal bovine serum, 1X penicillin-streptomycin supplement, and 500 μg/ml G418 (neomycin) to maintain selection (all from ThermoFisher) at 37°C with 5% CO2 atmosphere. For the cAMP assay, cells were seeded at 20,000 cells/well in a 96 well plate, recovered overnight, then serum starved for 4 h. The cells were then incubated with 500 μM IBMX for 20 min, followed by agonist concentration curves in 500 μM IBMX media for 10 min. The reaction was terminated, boiled, then collected, followed by competition with 7 μg of bovine protein kinase A (Sigma-Aldrich) and ∼1 pmol of ^3H-cAMP (PerkinElmer). The assay was incubated at room temp for 1 h, then collected onto GF/B filter plates and the data read using a MicroBeta2 scintillation counter (PerkinElmer).

human VPAC1 receptor = molecular target: T2, human VPAC1 receptor (Homo sapiens, UniProt P32241); assay: cAMP stimulation in CHO cells expressing VPAC1; format: cell-based
T2 construct: expressed in transfected cells; host or cells: CHO cells (G418 selection)
T2 sequence (P32241 31-457): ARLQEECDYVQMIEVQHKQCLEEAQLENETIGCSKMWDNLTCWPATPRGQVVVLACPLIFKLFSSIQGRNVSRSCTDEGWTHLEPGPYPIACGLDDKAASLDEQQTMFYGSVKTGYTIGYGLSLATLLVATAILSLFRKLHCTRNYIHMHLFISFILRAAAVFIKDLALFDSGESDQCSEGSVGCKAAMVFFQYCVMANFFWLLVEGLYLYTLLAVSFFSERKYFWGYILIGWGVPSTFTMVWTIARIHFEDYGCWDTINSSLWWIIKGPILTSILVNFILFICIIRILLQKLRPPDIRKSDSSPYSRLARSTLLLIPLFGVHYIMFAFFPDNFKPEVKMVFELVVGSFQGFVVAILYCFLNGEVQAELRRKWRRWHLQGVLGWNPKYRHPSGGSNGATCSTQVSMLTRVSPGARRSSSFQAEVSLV

Row | Compound | Emax (human VPAC1 receptor; CHO; read-out: VPAC1 Emax) | Emax (human PAC1 receptor) | other results
1 | PACAP6–38 [reference compound] | – | – | Antagonism of PAC1 (human PAC1 receptor; cAMP assay in CHO cells): unable to demonstrate antagonism
2 | CCC[C@H](NC(=O)[C@H](CCC(N)=O)NC(=O)[C@H](CCCCN)NC(=O)[C@H](CCCNC(=N)N)NC(=O)[C@H](Cc1ccc(O)cc1)NC(=O)[C@H](CCCNC(=N)N)NC(=O)[C@H](CO)NC(=O)[C@H](Cc1ccc(O)cc1)NC(=O)[C@H](CO)NC(=O)[C@H](CC(=O)O)NC(=O)[C@H](C)NC(=O)[C@H](Cc1ccccc1)NC(=O)[C@@H](NC(=O)CNC(=O)[C@H](CC(=O)O)NC(=O)[C@@H](CO)NC(=O)[C@@H](N)Cc1c[nH]cn1)[C@@H](C)CC)C(=O)N[C@@H](C)C(=O)N[C@H](C(=O)N[C@@H](CCCCN)C(=O)N[C@@H](CCCCN)C(=O)N[C@@H](Cc1ccc(O)cc1)C(=O)N[C@@H](CC(C)C)C(=O)N[C@@H](C)C(=O)N[C@@H](C)C(=O)N[C@H](C(=O)N[C@@H](CO[C@@H]1O[C@H](CO)[C@@H](O)[C@H](O)[C@H]1O)C(N)=O)C(C)C)C(C)C [CRA3004] | – | – | EC50 (human VPAC1 receptor): 1370 nM; Emax (human VPAC1 receptor; CHO, read-out: VPAC1 Emax): 85%
3 | CCC[C@H](NC(=O)[C@H](CCC(N)=O)NC(=O)[C@H](CCCCN)NC(=O)[C@H](CCCNC(=N)N)NC(=O)[C@H](Cc1ccc(O)cc1)NC(=O)[C@H](CCCNC(=N)N)NC(=O)[C@H](CO)NC(=O)[C@H](Cc1ccc(O)cc1)NC(=O)[C@H](CO)NC(=O)[C@H](CC(=O)O)NC(=O)[C@H](C)NC(=O)[C@H](Cc1ccccc1)NC(=O)[C@@H](NC(=O)CNC(=O)[C@H](CC(=O)O)NC(=O)[C@@H](CO)NC(=O)[C@@H](N)Cc1c[nH]cn1)[C@@H](C)CC)C(=O)N[C@@H](C)C(=O)N[C@H](C(=O)N[C@@H](CCCCN)C(=O)N[C@@H](CCCCN)C(=O)N[C@@H](Cc1ccc(O)cc1)C(=O)N[C@@H](CC(C)C)C(=O)N[C@@H](C)C(=O)N[C@@H](C)C(=O)N[C@@H](CO[C@@H]1O[C@H](CO)[C@@H](O)[C@H](O)[C@H]1O)C(=O)N[C@@H](CC(C)C)C(N)=O)C(C)C [CRA3005] | 78% | – | EC50 (human VPAC1 receptor; read-out: VPAC1 EC50): 1620 nM
4 | CCC[C@H](NC(=O)[C@H](CCC(N)=O)NC(=O)[C@H](CCCCN)NC(=O)[C@H](CCCNC(=N)N)NC(=O)[C@H](Cc1ccc(O)cc1)NC(=O)[C@H](CCCNC(=N)N)NC(=O)[C@H](CO)NC(=O)[C@H](Cc1ccc(O)cc1)NC(=O)[C@H](CO)NC(=O)[C@H](CC(=O)O)NC(=O)[C@@H](NC(=O)[C@H](Cc1ccccc1)NC(=O)[C@@H](NC(=O)CCCNC(=O)[C@H](CC(=O)O)NC(=O)[C@@H](CO)NC(=O)[C@@H](N)Cc1c[nH]cn1)[C@@H](C)CC)[C@@H](C)O)C(=O)N[C@@H](C)C(=O)N[C@H](C(=O)N[C@@H](CCCCN)C(=O)N[C@@H](CCCCN)C(=O)N[C@@H](Cc1ccc(O)cc1)C(=O)N[C@@H](CC(C)C)C(=O)N[C@@H](C)C(=O)N[C@@H](C)C(=O)N[C@H](C(=O)N[C@@H](CC(C)C)C(=O)N[C@@H](CO[C@@H]1O[C@H](CO)[C@@H](O)[C@H](O)[C@H]1O)C(N)=O)C(C)C)C(C)C [CRA3006] | 103% | 78% | –
5 | CCC[C@H](NC(=O)[C@H](CCC(N)=O)NC(=O)[C@H](CCCCN)NC(=O)[C@H](CCCNC(=N)N)NC(=O)[C@H](Cc1ccc(O)cc1)NC(=O)[C@H](CCCNC(=N)N)NC(=O)[C@H](CO)NC(=O)[C@H](Cc1ccc(O)cc1)NC(=O)[C@H](CO)NC(=O)[C@H](CC(=O)O)NC(=O)[C@@H](NC(=O)[C@H](Cc1ccccc1)NC(=O)[C@@H](CCC)NC(=O)CNC(=O)[C@H](CC(=O)O)NC(=O)[C@@H](CO)NC(=O)[C@@H](N)Cc1c[nH]cn1)[C@@H](C)O)C(=O)N[C@@H](C)C(=O)N[C@H](C(=O)N[C@@H](CCCCN)C(=O)N[C@@H](CCCCN)C(=O)N[C@@H](Cc1ccc(O)cc1)C(=O)N[C@@H](CC(C)C)C(=O)N[C@@H](C)C(=O)N[C@@H](C)C(=O)N[C@H](C(=O)N[C@@H](CC(C)C)C(=O)N[C@@H](CO[C@@H]1O[C@H](CO)[C@@H](O)[C@H](O)[C@H]1O)C(N)=O)C(C)C)C(C)C [CRA3020] | 78% | 97% | –
6 | CC[C@H](C)[C@H](NC(=O)CNC(=O)[C@H](CC(=O)O)NC(=O)[C@@H](CO)NC(=O)[C@@H](N)Cc1c[nH]cn1)C(=O)N[C@@H](Cc1ccccc1)C(=O)N[C@H](C(=O)N[C@@H](CC(=O)O)C(=O)N[C@@H](CO)C(=O)N[C@@H](Cc1ccc(O)cc1)C(=O)N[C@@H](CO)C(=O)N[C@@H](CCCNC(=N)N)C(=O)N[C@@H](Cc1ccc(O)cc1)C(=O)N[C@@H](CCCNC(=N)N)C(=O)N[C@@H](CCCCN)C(=O)N[C@@H](CCC(N)=O)C(=O)N[C@@H](CC(C)C)C(=O)N[C@@H](C)C(=O)N[C@H](C(=O)N[C@@H](CCCCN)C(=O)N[C@@H](CCCCN)C(=O)N[C@@H](Cc1ccc(O)cc1)C(=O)N[C@@H](CC(C)C)C(=O)N[C@@H](C)C(=O)N[C@@H](C)C(=O)N[C@H](C(=O)N[C@@H](CC(C)C)C(N)=O)C(C)C)C(C)C)[C@@H](C)O [2LS72–3] | – | 95.3 ± 8.1% | EC50 (human PAC1 receptor): 48.6 ± 32 nM
7 | CC[C@H](C)[C@H](NC(=O)CNC(=O)[C@H](CC(=O)O)NC(=O)[C@H](CO)NC(=O)[C@@H](N)Cc1c[nH]cn1)C(=O)N[C@@H](Cc1ccccc1)C(=O)N[C@H](C(=O)N[C@@H](CC(=O)O)C(=O)N[C@@H](CO)C(=O)N[C@@H](Cc1ccc(O)cc1)C(=O)N[C@@H](CO)C(=O)N[C@@H](CCCNC(=N)N)C(=O)N[C@@H](Cc1ccc(O)cc1)C(=O)N[C@@H](CCCNC(=N)N)C(=O)N[C@@H](CCCCN)C(=O)N[C@@H](CCC(N)=O)C(=O)N[C@@H](CC(C)C)C(=O)N[C@@H](C)C(=O)N[C@H](C(=O)N[C@@H](CCCCN)C(=O)N[C@@H](CCCCN)C(=O)N[C@@H](Cc1ccc(O)cc1)C(=O)N[C@@H](CC(C)C)C(=O)N[C@@H](C)C(=O)N[C@@H](C)C(=O)N[C@H](C(=O)N[C@@H](CC(C)C)C(=O)N[C@@H](CO[C@@H]1O[C@H](CO)[C@@H](O[C@@H]2O[C@H](CO)[C@H](O)[C@H](O)[C@H]2O)[C@H](O)[C@H]1O)C(N)=O)C(C)C)C(C)C)[C@@H](C)O [Compound 2LS80Lact] | – | 144 ± 20.7% | –
8 | CC[C@H](C)[C@H](NC(=O)CNC(=O)[C@H](CC(=O)O)NC(=O)[C@H](CO)NC(=O)[C@@H](N)Cc1c[nH]cn1)C(=O)N[C@@H](Cc1ccccc1)C(=O)N[C@H](C(=O)N[C@@H](CC(=O)O)C(=O)N[C@@H](CO)C(=O)N[C@@H](Cc1ccc(O)cc1)C(=O)N[C@@H](CO)C(=O)N[C@@H](CCCNC(=N)N)C(=O)N[C@@H](Cc1ccc(O)cc1)C(=O)N[C@@H](CCCNC(=N)N)C(=O)N[C@@H](CCCCN)C(=O)N[C@@H](CCC(N)=O)C(=O)N[C@@H](CC(C)C)C(=O)N[C@@H](C)C(=O)N[C@H](C(=O)N[C@@H](CCCCN)C(=O)N[C@@H](CCCCN)C(=O)N[C@@H](Cc1ccc(O)cc1)C(=O)N[C@@H](CC(C)C)C(=O)N[C@@H](C)C(=O)N[C@@H](C)C(=O)N[C@H](C(=O)N[C@@H](CC(C)C)C(N)=O)C(C)C)C(C)C)[C@@H](C)O [2LS72–2] | – | 74.3 ± 9.7% | EC50 (human PAC1 receptor): 90.7 nM

— paper PMC8887546, “Design and Synthesis of Brain Penetrant Glycopeptide Analogues of PACAP With Neuroprotective Potential for Traumatic Brain Injury and Parkinsonism” (Frontiers in drug discovery, 2022)
